Measurements published in patent US12121504B1, “Method for producing 1,3-diolein from biomass” (KING SAUD UNIVERSITY, priority 2024, dated 2024).

Tested on: C. auris strain
Type: cell-based, Candida auris
Details: C. auris strain used in the anti-fungal test
Method: The biological activity of compound 1 (linoleic acid) as an antifungal agent against fluconazole- and caspofungin-resistant C. auris was evaluated using disk diffusion assay for determining the inhibition zone (mm) and two-fold serial microdilution assay for determining the minimal inhibitory concentration (MIC) (mg/mL) according to Dilika et al., (2000) and Zheng et al., (2005). The hexadecanoic acid and isopropyl myristate were prepared (both compounds (data not shown) were used in this stage as a negative control).

SMILES	susceptibility of C. auris strain to standard anti-fungal drug
OC(Cn1cncn1)(Cn1cncn1)c1ccc(F)cc1F [fluconazole]	resistant
CC[C@H](C)C[C@H](C)CCCCCCCCC(=O)N[C@H]1C[C@@H](O)[C@@H](NCCN)NC(=O)[C@@H]2[C@@H](O)CCN2C(=O)[C@H]([C@H](O)CCN)NC(=O)[C@H]([C@H](O)[C@@H](O)c2ccc(O)cc2)NC(=O)[C@@H]2C[C@@H](O)CN2C(=O)[C@H]([C@@H](C)O)NC1=O [caspofungin]	resistant
